# Read-outs that look alike come from different tables or passages of the source.
# Biological target: T1, albumin (Homo sapiens, UniProt P02768)
# T1 construct: from tissue; host or cells: human blood serum (healthy persons, patients; albumin purified with boric acid-immobilized resin)
# Experiment: Albumin assay by BCP method after pretreatment with protein denaturing agent and/or compound having S—S bond
# Details: for albumin value by BCP method, sample GA: immunological method 8.1, no pretreatment 7.9; for albumin value by BCP method, sample NGA: immunological method 37.5, no pretreatment 36.1; for albumin value by BCP method, sample Blood serum of patients: immunological method 40.5, no pretreatment 36.2
# Experimental: The following compounds 1)-9) were used as the protein denaturing agent and/or the compound having S—S bond in the R-1 pretreatment reagent. • 1) 6,6′-dithiodinicotinic acid: 100 mM • 2) 3,3′-dithiodipropionic acid: 100 mM • 3) 2,2′-dithiodibenzoic acid: 100 mM • 4) 4,4′-dithiodimorpholine: 100 mM • 5) DTNB (50 mM) • 6) DDD (33 mM) • 7) 2-PDS (25 mM) • 8) 4-PDS (50 mM) • 9) SDS (0.3%) • 1)-5) manufactured by Wako Pure Chemical Industries, Ltd. • 6)-9) manufactured by Dojindo Laboratories <Samples>
# Glycated lbumin, non-glycated albumin, blood serum of healthy persons, and blood serum of patients were used as samples, and distilled water was used as a blank. Glycated albumin and non-glycated albumin were obtained from human blood serum, albumin was purified by known method and using a boric acid-immobilized resin.
# 2 μl of a sample was added to 160 μl of the pretreatment reagent incubated at 37° C. […] Absorbance at 600 nm was measured before the addition of the albumin coloring reagent and five minutes after the addition of the albumin coloring reagent. A calibration curve was prepared using distilled water and a sample with a known albumin concentration instead of the sample. A sample was separately assayed by an immune method using a latex reagent (LX reagent, Alb-II, manufactured by Eiken Chemical Co., Ltd.) as a control.
# [1] = pretreatment reagent at concentration of b299
# [2] = pretreatment reagent at concentration of b299, immunological method 43.0, no pretreatment 38.4
# T1 sequence (P02768 25-609): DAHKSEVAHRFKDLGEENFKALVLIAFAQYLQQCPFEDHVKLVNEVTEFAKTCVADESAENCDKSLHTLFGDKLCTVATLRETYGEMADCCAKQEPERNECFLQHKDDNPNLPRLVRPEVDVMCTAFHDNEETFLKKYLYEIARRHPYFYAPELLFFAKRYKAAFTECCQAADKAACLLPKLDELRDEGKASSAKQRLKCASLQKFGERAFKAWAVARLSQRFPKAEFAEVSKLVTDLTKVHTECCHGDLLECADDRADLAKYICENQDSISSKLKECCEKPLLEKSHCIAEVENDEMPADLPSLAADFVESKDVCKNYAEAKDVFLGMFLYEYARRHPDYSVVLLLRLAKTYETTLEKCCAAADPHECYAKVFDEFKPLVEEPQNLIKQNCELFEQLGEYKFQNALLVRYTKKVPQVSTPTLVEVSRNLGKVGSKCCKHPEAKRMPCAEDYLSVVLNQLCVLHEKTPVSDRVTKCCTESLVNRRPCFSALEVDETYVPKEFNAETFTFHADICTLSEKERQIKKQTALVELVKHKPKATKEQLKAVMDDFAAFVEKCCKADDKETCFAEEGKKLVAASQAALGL
SMILES,"albumin value by BCP method, sample Blood serum of healthy parsons","albumin value by BCP method, sample GA [1]","albumin value by BCP method, sample NGA [1]","albumin value by BCP method, sample Blood serum of patients [1]","albumin value by BCP method, sample Blood serum of healthy parsons [2]",effect of pretreatment on decreasing deviation from the immune method
"O=C(O)c1ccc(SSc2ccc(C(=O)O)cn2)nc1 [Reagent 1, 6,6′-dithiodinicotinic acid]",38.2,7.6,35.6,36.7,,
"O=C(O)CCSSCCC(=O)O [Reagent 2, 3,3′-dithiodipropionic acid]",,7.9,35.7,37.0,37.9,
"O=C(O)c1ccccc1SSc1ccccc1C(=O)O [Reagent 3, 2,2′-dithiodibenzoic acid]",,7.7,38.0,35.0,40.1,particularly remarkable
"C1CN(SSN2CCOCC2)CCO1 [Reagent 4, 4,4′-dithiodimorpholine]",,7.7,39.5,31.3,41.3,particularly remarkable
"O=C(O)c1cc(SSc2ccc([N+](=O)[O-])c(C(=O)O)c2)ccc1[N+](=O)[O-] [Reagent 5, 5,5′-dithiobis-(2-nitrobenzoic acid)]",,8.7,38.4,35.5,38.3,particularly remarkable
"Oc1ccc2cc(SSc3ccc4cc(O)ccc4c3)ccc2c1 [Reagent 6, 2,2′-dihydroxy-6,6′-dinaphthyl disulfide]",,7.6,36.9,37.7,39.1,particularly remarkable
"c1ccc(SSc2ccccn2)nc1 [Reagent 7, 2,2′-dithiopyridine]",,7.8,36.8,36.8,38.9,particularly remarkable
"c1cc(SSc2ccncc2)ccn1 [Reagent 8, 4,4′-dithiopyridine]",,7.5,36.2,36.2,38.8,particularly remarkable
"CCCCCCCCCCCCOS(=O)(=O)[O-].[Na+] [Reagent 9, sodium lauryl sulfate]",43.7,7.8,37.4,40.7,,particularly remarkable

# Source: US7250269B2, “Composition for assaying glycoprotein” (Asahi Kasei Pharma Corporation, priority 2001, dated 2007)
